Measurements from US20110064694A1, “ANTI-HEPATITIS C ACTIVITY OF MESO-TETRAKIS-PORPHYRIN ANALOGUES” (YALE UNIVERSITY, priority 2009, published 2011).
Read-outs that look alike come from different tables or passages of the source.

Tests used:
[1] = test system: HCV genotype 1b (Con 1 isolate) subgenomic replicon; assay: microbe, parasite or virus in culture; format: cell-based, Hepatitis C virus
Procedure: (§1) Cells. HCV genotype 1b (Con 1 isolate) subgenomic replicon cell line with luciferase reporter (Huh-luc/neo-ET) was kindly provided by Ralf Bartenschlager from the University of Heidelberg (37). Huh-luc/neo-ET cells were cultured in Dulbecco's modified Eagle medium (DMEM , supplemented with 10% fetal bovine serum (FBS), 1 mM nonessential amino acids, and 250 μg/ml of G418 (Invitrogen). Genotype 2a (JFH-I isolate) subgenomic replicon cells YSGR-JFH were cultured in DMEM containing 10 To fetal calf serum, 1 mM nonessential amino acids and 400 μg/ml G418 (31). An additional genotype 1b (Conl) replicon cell line (4291BBix) was cultured in similar media but with 3 μg/ml blasticidin (22).
(§2) Determination of antiviral activities. Ff-luciferase reporter activity was used to monitor the replication of HCV replicons in Huhluc/neo-ET cells free from G418. Replicon cells were seeded at the density of 5×10^3 cells per well in 96-well plates. The following day, replicon cells were incubated in duplicates with DMSO or serially diluted tetraphenylporphyrin (TPP) analogues at 37″C. 72 hrs after co-incubation, cells were lysed with ice-cold passive lysis reagent after PBS wash, and the luciferase activity was measured with the luciferase assay kit (Promega) and Tecan FARCyte luminometer (GE Healthcare) following the manufacturers' descriptions. The relative light units (RLU) were adjusted as percentage readings of the compound-free controls and the 50% effective concentration (EC50) was determined from dose-effect curve by nonlinear regression analysis using Origin 6.1 (OriginLab Software). TPP analogues were also screened in vitro against HIV-I IIIB and HBV as previously described (26,41). Briefly 1×10^3 MT-2 cells per well were exposed in triplets to 0.1TC1D50/cell (50% of the tissue culture infectious dose) of HIV-1 IIIB and cultured in the presence of compounds. The EC50 values were estimated by MTT-based colorimetric quantitation of viral CPE after 5 days. Anti-HBV activities were evaluated in 2.2.15 cells by means of Southern DNA hybridization.

HBV = assay: Anti-HBV activity in 2.2.15 cells by Southern DNA hybridization; format: cell-based; conditions: read-out: Antiviral Activity EC50 HBV
Procedure: as §2

HIV-1 IIIB = assay: Anti-HIV activity in MT-2 cells, MTT quantitation of viral CPE; format: cell-based; conditions: MT-2 cells, 5 days; read-out: Antiviral Activity EC50 HIV-1 IIIB
Procedure: as §2

[2] = test system: HCV genotype 1b (Con1) replicon RNA; assay: HCV RNA quantification by qRT-PCR in Huh-luc/neo-ET cells; format: cell-based, Hepatitis C virus; conditions: for EC50: qRT-PCR, estimated
Procedure: Quantification of HCV RNA and NS5A protein. Huhluc/neo-ET cells were seeded at the density of 1×10^5 cells per well in 6-well plate and treated with either DMSO control or up to 250 nM of compound 6. Cells were harvested after 24, 48, or 72 hrs of incubation and subjected to luciferase activity assay, RNA quantification and immunoblotting. Results were averaged from three independent repeats. Luciferase activity assay was done in triplets per experiment as aforementioned and RLU reading was normalized against the total protein level per sample determined from Bradford assay. Total RNA was isolated using RNeasy Mini Kit (QIAGEN) and the RNA concentrations were measured by spectrophotometry (GE Healthcare) followed by dilution into 50 ng/μL. Replicon RNA was quantitated in triplicates by amplifying the HCV 5′UTR using one-step real-time reverse transcriptase polymerase chain reactions (qRT-PCR). Each 20 μL replicate contained 100 ng of total RNA, 100 nM probe (6FAM-5′-[…]-3′-MGBNFQ, Applied Biosystems) and 200 nM forward and reverse primers (5′-[…]-3′, and 5′-[…]-3′ respectively, Yale University W.M. Keck Facility) (21), together with iScript reverse transcriptase and reaction mix for one-step RT-PCR (Bio-Rad Laboratories). Reactions were run in the iCycler iQ RealTime thermocycler detection system (Bio-Rad Laboratories) as follows: 10 min at 50° C., 5 min at 95° C., followed by 42 cycles at 95° C. for 15 sec and 60° C. for […]. Results were normalized against the β-actin mRNA levels in each sample (20).
(§3) Activity of compound 6 against genotype 2a (JFH-I) replicons. In parallel to Huh-luc/neo-ET cells, 1×10^5 YSGR-JFH cells per well were incubated with DMSO control, compound 6, or recombinant human IFNα-2a (Pestka Biomedical Laboratories) in 6-well plates. Cells were harvested after 72 hrs of co-incubation and HCV RNAs were quantitated by qRT-PCR and normalized as described above.

[3] = test system: HCV genotype 2a (JFH-1) replicon; assay: HCV RNA quantification by qRT-PCR in YSGR-JFH cells; format: cell-based, Hepatitis C virus
Procedure: as §1, §3

[4] = test system: mitochondrial potential of Huh-luc/neo-ET cells; conditions: up to 1 M for 9 days, compared with mock-treated control
Procedure: We treated Huh-luc/neo-ET cells with up to 1 µM of compound 6 for 9 days, during which the media were replenished every 3 days and the cells were passaged once. Live cells were stained with the ratiometric indicator JC-1 (Invitrogen) in order to measure the mitochondrial potential using confocal microscopy.

SMILES: O=C(O)c1cc(C(=O)O)cc(-c2ccc(-c3c4nc(c(-c5ccc(-c6cc(C(=O)O)cc(C(=O)O)c6)cc5)c5ccc([nH]5)c(-c5ccc(-c6cc(C(=O)O)cc(C(=O)O)c6)cc5)c5nc(c(-c6ccc(-c7cc(C(=O)O)cc(C(=O)O)c7)cc6)c6ccc3[nH]6)C=C5)C=C4)cc2)c1 [Compound 6, Meso-teftakis-(3,5-dicarboxy-4,4′-biphenyl)porphyrin]
- selective index in culture (CC50/EC50) ([1]; CC50 in naïve Huh-7 cells / EC50): over 2000
- EC50 ([1]; HCV replicons in vitro, read-out: anti-HCV EC50): 24 nM
- EC50 ([1]; Huh-luc/neo-ET, 72 hrs, luciferase, read-out: Antiviral Activity EC50 HCV): 24 ± 5.1 nM
- EC50 ([1]; Table 3, metal M in porphyrin core, read-out: EC50 anti-HCV activity, metallation of porphyrin core of compound 6): 19 ± 5.2 nM
- improvement in anti-HCV EC50 over compound 2 ([1]; relative to lead compound 2): 75 fold
- EC50 ([1]; unit inferred, read-out: EC50 against HCV genotype 1b Conl replicons): 24 ± 5 nM
- EC50 (HBV): > 20000 nM
- EC50 (HIV-1 IIIB): 3670 ± 1220 nM
- EC50 ([2]; 24 hrs, read-out: 24-hr EC50, HCV RNA level): 67.8 nM
- EC50 ([2]; 48 hrs, read-out: 48-hr EC50, HCV RNA level): 36.2 nM
- improvement of 72-hr EC50 compared with 24-hr incubation, HCV RNA ([2]; 72 hr vs 24 hr): over 2 fold
- EC50 in YSGR-JFH (genotype 2a) relative to EC50 in Huh-luc/neo-ET (genotype 1b) ([3]; 72 hrs): over 57 fold
- less effective against genotype 2a (JFH-1) than against genotype 1b (Conl) replicons ([3]; anti-HCV EC50): 57 times
- EC50 ([3]; genotype 2a, 72 hrs, HCV RNA by qRT-PCR, read-out: antiviral EC50 against YSGR-JFH replicon cells): 1380 ± 148 nM
- effect on mitochondrial potential [4]: did not affect the mitochondrial potential
